Source: patent publication US20060257543A1, “Molecules comprising linked organic moieties as flavor modifiers for comestible compositions” (priority 2005, published 2006)
Where two headings read alike, the source gives them in different places.

Columns and labels:
[1] = molecular target: T1, hT1R1/hT1R3 umami receptor expressed in an HEK293 cell line (Homo sapiens, UniProt Q7RTX0+Q7RTX1); assay: In vitro hT1R1/hT1R3 umami taste receptor activation assay (FLIPR, dose response); type: cell-based
T1 construct: expressed in transfected cells; host or cells: HEK293 derivative, clone I-17, expression induced with mifepristone
T1 sequence (Q7RTX1 21-841): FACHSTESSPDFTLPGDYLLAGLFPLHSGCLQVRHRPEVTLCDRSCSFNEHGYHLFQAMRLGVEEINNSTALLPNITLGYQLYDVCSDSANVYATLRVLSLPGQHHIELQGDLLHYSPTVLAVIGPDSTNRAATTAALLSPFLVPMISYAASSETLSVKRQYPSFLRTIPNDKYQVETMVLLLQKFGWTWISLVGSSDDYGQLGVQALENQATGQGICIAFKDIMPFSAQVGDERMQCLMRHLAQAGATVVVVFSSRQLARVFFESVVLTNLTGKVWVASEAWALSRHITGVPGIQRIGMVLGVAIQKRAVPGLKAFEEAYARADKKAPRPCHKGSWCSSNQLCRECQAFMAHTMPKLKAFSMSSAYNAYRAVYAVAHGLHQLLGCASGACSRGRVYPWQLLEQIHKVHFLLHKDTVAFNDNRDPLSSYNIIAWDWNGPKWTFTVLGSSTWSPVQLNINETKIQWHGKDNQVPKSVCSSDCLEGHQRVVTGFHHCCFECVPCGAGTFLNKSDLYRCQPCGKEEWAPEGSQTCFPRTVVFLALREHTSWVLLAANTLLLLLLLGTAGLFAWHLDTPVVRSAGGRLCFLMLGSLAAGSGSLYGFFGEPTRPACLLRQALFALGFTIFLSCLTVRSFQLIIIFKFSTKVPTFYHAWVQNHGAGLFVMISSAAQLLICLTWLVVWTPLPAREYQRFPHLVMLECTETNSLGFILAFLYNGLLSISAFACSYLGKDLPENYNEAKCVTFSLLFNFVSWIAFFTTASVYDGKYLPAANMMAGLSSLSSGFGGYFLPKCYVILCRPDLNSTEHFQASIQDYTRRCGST
T1 sequence (Q7RTX0 21-852): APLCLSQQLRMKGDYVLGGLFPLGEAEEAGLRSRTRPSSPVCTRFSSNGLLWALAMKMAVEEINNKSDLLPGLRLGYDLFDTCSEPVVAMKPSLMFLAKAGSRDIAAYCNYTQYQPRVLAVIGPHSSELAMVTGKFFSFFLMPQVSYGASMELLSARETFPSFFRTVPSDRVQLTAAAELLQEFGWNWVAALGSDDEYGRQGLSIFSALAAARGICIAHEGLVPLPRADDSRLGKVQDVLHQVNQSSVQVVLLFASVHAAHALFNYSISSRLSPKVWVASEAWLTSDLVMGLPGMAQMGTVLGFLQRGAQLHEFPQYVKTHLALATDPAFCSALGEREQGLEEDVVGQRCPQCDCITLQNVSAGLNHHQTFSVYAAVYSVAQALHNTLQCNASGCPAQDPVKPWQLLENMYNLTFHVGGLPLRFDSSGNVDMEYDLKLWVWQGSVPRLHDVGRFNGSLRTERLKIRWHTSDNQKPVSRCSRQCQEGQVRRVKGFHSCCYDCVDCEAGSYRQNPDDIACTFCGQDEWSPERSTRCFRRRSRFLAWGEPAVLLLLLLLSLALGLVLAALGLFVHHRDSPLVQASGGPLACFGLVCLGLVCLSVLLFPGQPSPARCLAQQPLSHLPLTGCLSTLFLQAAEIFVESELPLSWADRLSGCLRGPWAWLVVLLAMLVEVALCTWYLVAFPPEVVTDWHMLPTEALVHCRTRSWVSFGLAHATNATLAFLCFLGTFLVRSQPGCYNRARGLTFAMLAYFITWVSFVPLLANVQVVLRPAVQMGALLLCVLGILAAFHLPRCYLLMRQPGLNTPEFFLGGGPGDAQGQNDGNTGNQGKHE
From the text: In order to identify new savory flavoring agents and enhancers, including compounds with savory agonist and enhancer activities (dual activity), the tastant compounds of Formula (I) were screened in primary assays and secondary assays including compound dose response and enhancement assay. In a primary assay for potential ability to modulate umami taste, tastant compounds of Formula (I) that can be either savory flavoring agents in their own right or flavor enhancers of MSG are identified and scores of their activities are given as percentage of the maximum MSG intensity (%). In compound dose response, an EC50 is calculated to reflect the potency of the compound as a savory agonist or enhancer.
An HEK293 cell line derivative (see e.g., Chandrashekar, et al., Cell (2000) 100: 703-711) which stably expresses Gα15 and hT1R1/hT1R3 under an inducible promoter (see WO 03/001876 A2) was used to identify compounds with savory tasting properties.
Compounds disclosed in this application were initially selected based on their activity on the hT1R1/hT1R3-HEK293-Gα15 cell line. Activity was determined using an automated fluorometric imaging assay on a FLIPR instrument (Fluorometric Intensity Plate Reader, Molecular Devices, Sunnyvale, Calif.) (designated FLIPR assay). Cells from one clone (designated clone I-17) were seeded into 384-well plates (at approximately 48,000 cells per well) in a medium containing Dulbecco's modified Eagle's medium (DMEM) supplemented with GlutaMAX (Invitrogen, Carlsbad, Calif.), 10% dialyzed fetal bovine serum (Invitrogen, Carlsbad, Calif.), 100 Units/ml Penicillin G, 100 μg/ml Streptomycin (Invitrogen, Carlsbad, Calif.) and 60 pM mifepristone (to induce expression of hT1R1/hT1R3, (see WO 03/001876 A2). I-17 cells were grown for 48 hours at 37° C. I-17 cells were then loaded with the calcium dye Fluo-3AM (Molecular Probes, Eugene, Oreg.), 4 μM in a phosphate buffered saline (D-PBS) (Invitrogen, Carlsbad, Calif.), for 1.5 hours at room temperature. After replacement with 25 μl D-PBS, stimulation was performed in the FLIPR instrument and at room temperature by the addition of 25 μl D-PBS supplemented with different stimuli at concentrations corresponding to twice the desired final level. Receptor activity was quantified by determining the maximal fluorescence increases (using a 480 nm excitation and 535 nm emission) after normalization to basal fluorescence intensity measured before stimulation.
For dose-responses analysis, stimuli were presented in duplicates at 10 different concentrations ranging from 1.5 nM to 30 μM. Activities were normalized to the response obtained with 60 mM monosodium glutamate, a concentration that elicits maximum receptor response. EC50s (concentration of compound that causes 50% activation of receptor) were determined using a non-linear regression algorithm, where the Hill slope, bottom asymptotes and top asymptotes were allow to vary. Identical results were obtained when analyzing the dose-response data using commercially available software for non-linear regression analysis such as GraphPad PRISM (San Diego, Calif.).

[2] = molecular target: T1, hT1R1/hT1R3 umami receptor expressed in an HEK293 cell line; assay: Umami taste enhancement activity assay (EC50 ratio vs. MSG); type: cell-based
From the text: In umami taste enhancement activity assay experiments, which produce an “EC50 ratio” measurement of how effectively the tastant compounds of the invention enhance the savory flavorant (typically MSG) already in a test solution. A series of measurements of the dose response is run in solutions comprising MSG alone, then a second dose response is run with MSG in combination with predetermined amounts of a candidate compound of Formula (I) at the same time.
In this assay, increasing concentrations of monosodium glutamate (ranging from 12 μM to 81 mM) were presented, in duplicates, in the presence or absence of a fixed concentration of the test compound. Typical compound concentrations tested were 30 μM, 10 μM, 3 μM, 1 μM, 0.3 μM, 0.1 μM and 0.03 μM. The relative efficacy of compounds of Formula (I) at enhancing the receptor was determined by calculating the magnitude of a shift in the EC50 for monosodium glutamate. Enhancement was defined as a ratio (EC50R) corresponding to the EC50 of monosodium glutamate, determined in the absence of the test compound, divided by the EC50 of monosodium glutamate, determined in the presence of the test compound.
Stated alternatively, “EC50 ratio” as compared to MSG is calculated based on the following definitions:
EC50 Ratio vs. MSG=EC50 (MSG)/EC50 (MSG+[Compound]) • wherein “[compound]” refers to the concentration of the compound of Formula (I) used to elicit (or enhance or potentiate) the MSG dose response.
It should be noted that the EC50 ratio measured can depend somewhat on the concentration of the compound itself. Preferred savory enhancers would have a high EC50 Ratio vs. MSG at a low concentration of the compound used. Preferably the EC50 ratio experiments to measure umami enhancement are run at a concentration of a compound of Formula (I) between about 10 μM to about 0.1 μM, or preferably at […] or 3.0 μM.

EC50 ([1]; read-out: EC50 for activation of a hT1R1/hT1R3 umami receptor expressed in an HEK293 cell line) [µM]	EC50 ratio (enhanced the effectiveness of monosodium glutamate) ([2]; compound present at 0.03 μM)	EC50 ([1]; read-out: Umami EC50) [µM]	EC50 ratio (vs. MSG) ([2]; compound @ 1 μM)	EC50 ratio (vs. MSG) ([2]; compound @ 3 μM)	SMILES
8.8	3	–	–	–	CCCC(CCC)NC(=S)c1ccc2c(c1)OCO2 [Example 1, N-(heptan-4-yl)benzo[d][1,3]dioxole-5-carbothioamide]
–	–	4.53	4.7	–	S=C(NCCc1ccccn1)Nc1cccc(Cl)c1 [Example A17]
–	–	6.34	–	6.5	O=C(SCc1ccccn1)c1ccccc1 [Example A11]
–	–	11.8	–	3.6	COc1ccc(CNc2nc3ccccn3n2)cc1 [Example A9]
–	–	6	–	3.8	O=C(OCCCn1ncc2ccccc2c1=O)c1cccs1 [Example A7]
–	–	5.14	2.81	–	c1ccc2oc(SCc3cn4ccccc4n3)nc2c1 [Example A12]
–	–	11.8	3.1	–	COc1ccc(CNc2ccccn2)cc1 [Example A8]
–	–	3.5	–	4.4	O=C(OCCCc1nc2ccccc2[nH]1)c1cccs1 [Example A6]
–	–	1.31	–	–	S=C(NCCc1ccccn1)Nc1ccccc1OCc1ccccc1 [Example A1]
–	–	5.19	–	3.6	c1ccc2sc(SCc3cn4ccsc4n3)nc2c1 [Example A13]
–	–	3.26	–	–	CSc1ccc(NC(=S)NCCc2ccccn2)cc1 [Example A5]
